The structures appear in SMILES notation.

The nature of the first series: Preservation stability of the coating liquid. The conditions noted are these: coating liquid stored for 2 months shielded from light at 0° C.; appearance and GPC. In kind it is physicochemical. As to the method: The preservation stability of the coating liquid was evaluated on a scale of A to E on the basis of the state of the coating liquid that was stored for 2 months under a condition where the coating liquid was shielded from light at 0° C.
A: No visual change in the appearance of the coating liquid was confirmed. A GPC analysis of the coating liquid confirmed that the change in the composition of the coating liquid was 1% or less.
B: No visual change in the appearance of the coating liquid was confirmed. A GPC analysis of the coating liquid confirmed that the change in the composition of the coating liquid was 2% or less.
C: A visual change in the appearance of the coating liquid was confirmed; a trace amount of insoluble components were confirmed, or a GPC analysis of the coating liquid confirmed that the change in the composition of the coating liquid was 3% or less.
D: A visual change in the appearance of the coating liquid was confirmed; insoluble components were confirmed. The ratio of the weight of the insoluble components to the total solid content was 5% or less.
E: A large amount of insoluble components were visually confirmed. The ratio of the weight of the insoluble components to the total solid content was 5% or more.
Regarding `C=CC(=O)OCCCCCCOc1ccc(OC(=O)C2CCC(COc3ccc(OCC4CCC(C(=O)Oc5ccc(OCCCCCCOC(=O)C=C)cc5)CC4)c(/C=N/N(CCOCCOC)c4nc5ccccc5s4)c3)CC2)cc1` (stereo not drawn) [1-cmn-91], the Preservation stability entry is on record as “A (No visual change in the appearance of the coating liquid was confirmed. A GPC analysis of the coating liquid confirmed that the change in the composition of the coating liquid was 1% or less.)”.

With `C=CC(=O)OCCCOc1ccc(/C=C/C(=O)Oc2ccc(OC(=O)/C=C/c3ccc(OCCCOC(=O)C=C)c(Cl)c3)c(/C=N/Nc3nc4ccccc4s3)c2)cc1Cl` [1-c-47], the Preservation stability result is listed as “B (No visual change in the appearance of the coating liquid was confirmed. A GPC analysis of the coating liquid confirmed that the change in the composition of the coating liquid was 2% or less.)”.

Take `C=CC(=O)OCCCCCCOC1CCC(C(=O)Oc2ccc(OC(=O)C3CCC(OCCCCCCOC(=O)C=C)CC3)c(/C=N/Nc3nc4ccccc4s3)c2)CC1` (stereo not drawn) [1-f-19]: the Preservation stability result is given as “A (No visual change in the appearance of the coating liquid was confirmed. A GPC analysis of the coating liquid confirmed that the change in the composition of the coating liquid was 1% or less.)”.

Turning to `C=CC(=O)Oc1ccc(C(=O)OCCc2ccc(CCOC(=O)c3ccc(OC(=O)C=C)cc3)c(/C=N/Nc3nc4ccccc4s3)c2)cc1` [1-cg-37], the Preservation stability result is given as “B (No visual change in the appearance of the coating liquid was confirmed. A GPC analysis of the coating liquid confirmed that the change in the composition of the coating liquid was 2% or less.)”.

Consider `C=CC(=O)OCCCOc1ccc(C(=O)OCCc2ccc(CCOC(=O)c3ccc(OCCCOC(=O)C=C)cc3)c(/C=N/Nc3nc4ccccc4s3)c2)cc1` [1-c-9], for which the Preservation stability entry is “A (No visual change in the appearance of the coating liquid was confirmed. A GPC analysis of the coating liquid confirmed that the change in the composition of the coating liquid was 1% or less.)”.

With `C=CC(=O)OCCCCCCOc1ccc(C(=O)OCCc2ccc(CCOC(=O)c3ccc(OCCCCCCOC(=O)C=C)cc3)c(/C=N/Nc3nc4ccccc4s3)c2)cc1` [1-c-12], the Preservation stability entry was “A (No visual change in the appearance of the coating liquid was confirmed. A GPC analysis of the coating liquid confirmed that the change in the composition of the coating liquid was 1% or less.)”.

Turning to `C=CC(=O)OCCCCCCOC(=O)/C=C/c1ccc(CCC(=O)Oc2ccc(OC(=O)CCc3ccc(/C=C/C(=O)OCCCCCCOC(=O)C=C)cc3)c(/C=N/Nc3nc4ccccc4s3)c2)cc1` [1-cj-60], the Preservation stability entry is on record as “A (No visual change in the appearance of the coating liquid was confirmed. A GPC analysis of the coating liquid confirmed that the change in the composition of the coating liquid was 1% or less.)”.

In the case of `C=CC(=O)OCCCCCCOc1ccc(C(=O)OCCc2ccc(OC(=O)c3ccc(OCCCCCCOC(=O)C=C)cc3)c(/C=N/Nc3nc4ccc5ccccc5c4s3)c2)cc1` [1-c-33], the Preservation stability entry is reported as “B (No visual change in the appearance of the coating liquid was confirmed. A GPC analysis of the coating liquid confirmed that the change in the composition of the coating liquid was 2% or less.)”.

In the case of `C=CC(=O)OCCCCCOc1ccc(C(=O)OCCc2ccc(OC(=O)c3ccc(OCCCCCOC(=O)C=C)cc3)c(/C=N/Nc3nc4cc(O)c([N+](=O)[O-])cc4[nH]3)c2)cc1` [1-c-29], the Preservation stability entry is on record as “B (No visual change in the appearance of the coating liquid was confirmed. A GPC analysis of the coating liquid confirmed that the change in the composition of the coating liquid was 2% or less.)”.

As for `C=CC(=O)OCCCCOC(=O)C1CCC(C(=O)OC2CCC(C(=O)Oc3ccc(OC(=O)C4CCC(OC(=O)C5CCC(C(=O)OCCCCOC(=O)C=C)CC5)CC4)c(/C=N/Nc4nc5ccc6ccccc6c5s4)c3)CC2)CC1` (stereo not drawn) [1-f-22], the Preservation stability result is “A (No visual change in the appearance of the coating liquid was confirmed. A GPC analysis of the coating liquid confirmed that the change in the composition of the coating liquid was 1% or less.)”.

`C=CC(=O)OCCCCCCOc1ccc(C(=O)Oc2ccc(-c3ccc(OC(=O)c4ccc(OCCCCCCOC(=O)C=C)cc4)cc3/C=N/Nc3nc4ccccc4s3)cc2)cc1` [1-hk-85]: the Preservation stability result is reported as “A (No visual change in the appearance of the coating liquid was confirmed. A GPC analysis of the coating liquid confirmed that the change in the composition of the coating liquid was 1% or less.)”.

For `C=CC(=O)OCCCOc1ccc(C(=O)OCCc2ccc(CCOC(=O)c3ccc(OCCCOC(=O)C=C)cc3)c(/C=N/N(C(=O)C=C)c3nc(-c4ccc5ccccc5c4)cs3)c2)cc1` [1-c-41], the Preservation stability entry is “A (No visual change in the appearance of the coating liquid was confirmed. A GPC analysis of the coating liquid confirmed that the change in the composition of the coating liquid was 1% or less.)”.

Consider `C=CC(=O)OCCCOc1ccc(CCC(=O)Oc2ccc(OC(=O)CCc3ccc(OCCCOC(=O)C=C)c(OC)c3)c(/C=N/Nc3nc4ccccc4s3)c2)cc1OC` [1-c-52], for which the Preservation stability entry is recorded as “A (No visual change in the appearance of the coating liquid was confirmed. A GPC analysis of the coating liquid confirmed that the change in the composition of the coating liquid was 1% or less.)”.

In the case of `C=CC(=O)OCCCCCCOc1ccc(C(=O)Oc2ccc(-c3ccc(OC(=O)c4ccc(OCCCCCCOC(=O)C=C)cc4)cc3C=NN=C3c4ccccc4-c4ccccc43)cc2)cc1` [1-hk-86], the Preservation stability entry is on record as “A (No visual change in the appearance of the coating liquid was confirmed. A GPC analysis of the coating liquid confirmed that the change in the composition of the coating liquid was 1% or less.)”.

Turning to `C=CC(=O)OCCCOc1ccc(C(=O)OCCc2ccc(OC(=O)c3ccc(OCCCOC(=O)C=C)cc3)c(/C=N/Nc3nc4cc([N+](=O)[O-])ccc4s3)c2)cc1` [1-c-23], the Preservation stability result is on record as “B (No visual change in the appearance of the coating liquid was confirmed. A GPC analysis of the coating liquid confirmed that the change in the composition of the coating liquid was 2% or less.)”.

For the compound `C=CC(=O)OCCCCCCOc1ccc(C(=O)OCCc2ccc(OC(=O)c3ccc(OCCCCCCOC(=O)C=C)cc3)c(/C=N/Nc3nc4cc([N+](=O)[O-])ccc4s3)c2)cc1` [1-c-30], the Preservation stability entry is recorded as “B (No visual change in the appearance of the coating liquid was confirmed. A GPC analysis of the coating liquid confirmed that the change in the composition of the coating liquid was 2% or less.)”.

In the case of `C=CC(=O)OCCCCOc1ccc(OC(=O)C2CCC(C(=O)OCCc3ccc(OC(=O)C4CCC(C(=O)Oc5ccc(OCCCCOC(=O)C=C)cc5)CC4)c(C=NNc4nc5ccccc5s4)c3)CC2)cc1` (stereo not drawn) [1-c-14], the Preservation stability result is reported as “A (No visual change in the appearance of the coating liquid was confirmed. A GPC analysis of the coating liquid confirmed that the change in the composition of the coating liquid was 1% or less.)”.

Consider `C=CC(=O)OCCCOc1ccc(C(=O)OCCc2ccc(OC(=O)c3ccc(OCCCOC(=O)C=C)cc3)c(/C=N/Nc3nc4cc(CCC)ccc4s3)c2)cc1` [1-c-26], for which the Preservation stability entry is given as “A (No visual change in the appearance of the coating liquid was confirmed. A GPC analysis of the coating liquid confirmed that the change in the composition of the coating liquid was 1% or less.)”.

Turning to `C=CC(=O)OCCCCCCOc1ccc(OCCOc2ccc(OCCOc3ccc(OCCCCCCOC(=O)C=C)cc3)c(/C=N/Nc3nc4ccccc4s3)c2)cc1` [1-c-80], the Preservation stability entry is recorded as “A (No visual change in the appearance of the coating liquid was confirmed. A GPC analysis of the coating liquid confirmed that the change in the composition of the coating liquid was 1% or less.)”.

The series is the same for the next values; noted with them: summary in words.
Turning to `C=CC(=O)OCCCCCCOc1ccc(C(=O)Oc2ccc(-c3ccc(OC(=O)c4ccc(OCCCCCCOC(=O)C=C)cc4)cc3/C=N/Nc3nc4ccccc4s3)cc2)cc1` [1-hk-85], the Preservation stability entry was “high”.

As to `C=CC(=O)OCCCCCCOc1ccc(C(=O)Oc2ccc(-c3ccc(OC(=O)c4ccc(OCCCCCCOC(=O)C=C)cc4)cc3C=NN=C3c4ccccc4-c4ccccc43)cc2)cc1` [1-hk-86], the Preservation stability entry is recorded as “high”.

The record behind these values is patent US10633353B2, “Polymerizable compound, composition, polymer, optically anisotropic body, liquid crystal display element, and organic EL display” (DIC Corporation, priority 2014, dated 2020).
